Reference: patent publication US6858646B2, “Neuroprotective composition and uses thereof” (Universite du Quebec a Montreal, priority 1999, dated 2005)

What was measured:
P19 neurons [1] = type: cell-based; details: for Protection against oxidative stress caused by hydrogen peroxide: assayed at 0.5× suboptimal concentration, 0 to 10 mM H2O2, 30 min
Experimental: Culture and neuronal differentiation of P19 embryonal carcinoma cells were done according to the procedures of Jeannotte et al. (1997) with the following modifications for microscale adaptation of cultures to 96-well plates: cell aggregates obtained at day 4 of the treatment of P19 cells with retinoic acid were trypsinized with 0.025% trypsin-1 mM EDTA in PBS and subjected to mechanical passages to obtain individual cells which were seeded in gelatin-precoated microwells at a density of 0.7-1×10^5 cells per well. The newly seeded cells (neurons) were cultured in supplemented Neurobasal medium (Neurobasal® containing 0.5 mM L-glutamine and 0.5% B27 supplement) until exposure to oxidative conditions at day 7. Because this defined serum-free medium sustains growth of P19 neurons (Yao et al., 1995) but discourages the proliferation of fibroblasts, another cell derivative of the differentiation of P19 cells with retinoic acid (McBurney, 1993; Jeannotte et al., 1997), the cell populations in microwells were composed mostly of neurons (≦95%).
The prooxidant systems tested with P19 neurons were XA/XAO, H2O2, and H2O2/Fe^+2. Before neurons were exposed to either one of these systems, they were carefully washed with PBS and then incubated at 37° C., in an atmosphere of 95% ambient air and 5% CO2, and in the specific conditions of each system, as follows: i) from 0 to 90 min in the presence of PBS containing 500 μM XA and 50 mU/ml XAO, with the enzyme added last to start the reaction; ii) for 30 min in the presence of PBS containing 0 to 10 mM H2O2 with peroxide added last; and iii) for 30 min in the presence of PBS containing 0 to 10 mM H2O2 plus 50 μM FeCl2, with peroxide added last. Conditions were initially taken from Cini et al. (1994) for XA/XAO, from Desagher et al. (1996) for H2O2, and from Takemura et al. (1994) for H2O2/Fe^+2 systems respectively, and adapted to produce dose- or time-dependent cell mortality in P19 neurons. The first studies done with the H2O2/Fe^2+ system included the addition of 500 μM ascorbic acid; however, since responses of P19 neurons were similar whether or not ascorbic acid was present, this vitamin was omitted in subsequent experiments.
When TRIAD or its components were tested for their antioxidant action, they were administered to cells just prior the addition of XAO or H2O2. After incubation of cells under oxidative conditions, the prooxidant medium was removed and replaced with 200 μl of supplemented Neurobasal-minus AO (Neurobasal® containing L-glutamine and the B27-minus AO supplement). B27-minus AO is a version of B27 supplement sold by Gibco-BRL from which normally present antioxidants (AO=vitamin E, catalase, SOD and GSH) have been removed. Cells were incubated in this Neurobasal-minus AO medium for 16 h, at 37° C., 5% CO2, and for a further 7 h in the same medium but in the presence of Alamar Blue for viability measurement.
(§1) Fifteen (15) μl Alamar Blue was added to the culture medium of each well (200 μl) and incubation resumed for 7 h at 37° C., 5% CO2. A 180-μl aliquot of each culture medium was read by fluorescence using a wavelength of 544 nm for excitation and of 590 nm for emission; fluorescence increases upon reduction of the dye by metabolic activity of viable cells. Fluorescence determinations were done with a fluorimeter adapted to read microplates. Viability is reported as %, comparing the fluorescence units obtained for cells exposed to oxidative conditions to those of control (non-exposed) cells.

P19 neurons [2] = test: Protection of P19 neurons exposed to XA/XAO mediated oxidative stress (Alamar Blue viability); type: cell-based; details: 1× concentration
Experimental: Culture and neuronal differentiation of P19 embryonal carcinoma cells were done according to the procedures of Jeannotte et al. (1997) with the following modifications for microscale adaptation of cultures to 96-well plates: cell aggregates obtained at day 4 of the treatment of P19 cells with retinoic acid were trypsinized with 0.025% trypsin-1 mM EDTA in PBS and subjected to mechanical passages to obtain individual cells which were seeded in gelatin-precoated microwells at a density of 0.7-1×10^5 cells per well. […]
Another protocol was also tested for XA/XAO system to generate a milder oxidative stress. […] At end of stress, PBS was changed for Neurobasal-minus AO medium and cells were incubated for 7 h, readily in the presence of Alamar Blue, for viability measurement.
as §1

[3] = In vitro antioxidant capacity: inhibition of DPD oxidation by H2O2, in absence of cells
Experimental: Oxidation of N,N-diethyl-p-phenylenediamine (DPD) by a prooxidant system was used as a general reporter of the amount of ROS generated by that system (Anonymous, 1985; Chahine et al., 1991). Antioxidant capacity of preparations of TRIAD (or of its components) was defined as the ability to inhibit the oxidation of DPD by prooxidants.
To estimate the antioxidant capacity of TRIAD preparations in the prooxidant conditions used with P19 neurons, DPD was added to a final concentration of 32 mM to 200 μl of each prooxidant system described above (see section 2.4) and incubated for the times tested with the cells. At the end of incubation, the amount of oxidized DPD was determined at 560 nm using a spectrophotometer adapted to microscale measurement.

SMILES	Protection against oxidative stress caused by hydrogen peroxide (P19 neurons [1])	LD50 (P19 neurons [1]; mouse, 30 min)	Cell mortality (P19 neurons [1]; mouse, 30 min, 1 mM)	Protection against neuronal death caused by XA/XAO (P19 neurons [2]; 500 μM XA, 50 mU/mL XAO, 0-90 min)	Protective effect against XA/XAO (P19 neurons [2]; from 30 to 90 min of incubation with XA/XAO)	Contribution to TRIAD protective effect (P19 neurons [1]; H2O2/Fe2+ prooxidant system)	Share of the protective effect of TRIAD (P19 neurons [1]; at low hydrogen peroxide concentrations)	Contribution to the neuroprotective action of TRIAD against H2O2-induced injury (P19 neurons [1]; cultured neurons)	Inhibition of the oxidation of DPD by H2O2 [3]
Cc1c(C)c2c(c(C)c1O)CC[C@@](C)(CCC[C@H](C)CCC[C@H](C)CCCC(C)C)O2 [vitamin E, α-tocopherol]	did not provide protection								
OO [hydrogen peroxide, reference compound]		0.3 mM	approximately 70%						
CC(=O)C(=O)[O-].[Na+] [pyruvate, sodium pyruvate]	substantial and stable protection up to 10 mM H2O2			protected only slightly less than TRIAD 1×	remained stable	contributed for most of TRIAD protective effect	half	60%	substantial although not total antioxidant effect
